In patent US20260356817A1, “AMINOPYRIMIDINE AND AMINOTRIAZINE DERIVATIVES AS MYC PROTEIN MODULATORS” (Sanford Burnham Prebys Medical Discovery Institute, priority 2022, published 2026):
Like-named read-outs stand apart in the source and are kept apart here.

Test system: Myc
Assay: Myc inhibition assay: Myc expression per cell by anti-Myc immunofluorescence, high-content imaging
Type: cell-based, human (patient-derived medulloblastoma xenograft cells)
Settings: medulloblastoma PDX cells, 4 h
How it was run: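 Cells from Myc-driven medulloblastoma patient-derived orthotopic xenografts, propagated only in NSG mouse cerebellum, were dissociated and plated in serum-free medium. After overnight recovery, compounds were applied for 4 hours; cells were then fixed, stained for Myc and DAPI, and per-cell Myc quantified by high-content imaging to derive IC50.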

[1] = Table 1, read-out: IC50 (Myc inhibition)
[2] = Table 2, read-out: MYC Inhibition IC50

| SMILES | IC50 [1] [µM] | IC50 [2] [µM] |
| --- | --- | --- |
| COc1ccnc(-c2ccnc(Nc3cccc(F)c3)n2)c1 [Compound 193, N-(3-fluorophenyl)-4-(4-methoxypyridin-2-yl)pyrimidin-2-amine] | 10 to 100 | 10 to 100 |
| Cc1c(-c2ccnc(Nc3cccc(C(F)(F)F)c3)n2)ccc2[nH]cnc12 [Compound 125, 4-(4-methyl-1H-benzo[d]imidazol-5-yl)-N-(3-(trifluoromethyl)phenyl)pyrimidin-2-amine] | 1 to 10 | 1 to 10 |
| Oc1ccc(Nc2nccc(-c3ccc4[nH]cnc4c3)n2)cn1 [Compound 29, 5-((4-(1H-benzo[d]imidazol-5-yl)pyrimidin-2-yl)amino)pyridin-2-ol] | 1 to 10 | 1 to 10 |
| COC(=O)c1cccc(Nc2nccc(-c3ccnc(O)c3)n2)c1 [Compound 185, methyl 3-((4-(2-hydroxypyridin-4-yl)pyrimidin-2-yl)amino)benzoate] | 1 to 10 | 1 to 10 |
| Fc1ccccc1Nc1nccc(-c2ccc3[nH]cnc3c2)n1 [Compound 66, 4-(1H-benzo[d]imidazol-5-yl)-N-(2-fluorophenyl)pyrimidin-2-amine] | 1 to 10 | 1 to 10 |
| COc1ccc(-c2ccnc(Nc3ccccc3)n2)cn1 [Compound 239, 4-(6-methoxypyridin-3-yl)-N-phenylpyrimidin-2-amine] | 10 to 100 | 10 to 100 |
| Fc1cccc(Nc2nccc(-c3cnc4[nH]ccc4c3)n2)c1 [Compound 169, N-(3-fluorophenyl)-4-(1H-pyrrolo[2,3-b]pyridin-5-yl)pyrimidin-2-amine] | 10 to 100 | 10 to 100 |
| Oc1ccc(Oc2ccnc(Nc3cccc(F)c3)n2)cn1 [Compound 110, 5-((2-((3-fluorophenyl)amino)pyrimidin-4-yl)oxy)pyridin-2-ol] | 1 to 10 | 1 to 10 |
| Oc1cccc(-c2ccnc(Nc3ccccc3)n2)n1 [Compound 226, 6-(2-(phenylamino)pyrimidin-4-yl)pyridin-2-ol] | 10 to 100 | 10 to 100 |
| Oc1cc(-c2ccnc(Nc3cccc(C(F)(F)F)n3)n2)ccn1 [Compound 167, 4-(2-((6-(trifluoromethyl)pyridin-2-yl)amino)pyrimidin-4-yl)pyridin-2-ol] | 10 to 100 | 10 to 100 |
| Oc1ccc(Nc2ccnc(Nc3cccc(F)c3)n2)cn1 [Compound 123, 5-((2-((3-fluorophenyl)amino)pyrimidin-4-yl)amino)pyridin-2-ol] | 10 to 100 | 10 to 100 |
| Cc1cc2nc[nH]c2cc1-c1ccnc(Nc2cccc(C(F)(F)F)c2)n1 [Compound 114, 4-(5-methyl-1H-benzo[d]imidazol-6-yl)-N-(3-(trifluoromethyl)phenyl)pyrimidin-2-amine] | 1 to 10 | 1 to 10 |
| COc1cc(-c2ccnc(Nc3cncnc3)n2)ccn1 [Compound 179, 4-(2-methoxypyridin-4-yl)-N-(pyrimidin-5-yl)pyrimidin-2-amine] | 10 to 100 | 10 to 100 |
| c1csc(CNc2nccc(-c3ccc4[nH]cnc4c3)n2)c1 [Compound 75, 4-(1H-benzo[d]imidazol-5-yl)-N-(thiophen-2-ylmethyl)pyrimidin-2-amine] | 1 to 10 | 1 to 10 |
| Oc1cc(-c2ccnc(Nc3ccccc3)n2)ccn1 [Compound 251, 4-(2-(phenylamino)pyrimidin-4-yl)pyridin-2-ol] | 1 to 10 | 1 to 10 |
| O=C(c1cccc(Nc2nccc(-c3ccc4[nH]cnc4c3)n2)c1)N1CCCC1 [Compound 17, (3-((4-(1H-benzo[d]imidazol-5-yl)pyrimidin-2-yl)amino)phenyl)(pyrrolidin-1-yl)methanone] | 10 to 100 | 10 to 100 |
| Oc1cc(-c2ccnc(Oc3ccccc3)n2)ccn1 [Compound 232, 4-(2-phenoxypyrimidin-4-yl)pyridin-2-ol] | 10 to 100 | 10 to 100 |
| COc1cc(-c2ccnc(Nc3ccccc3F)n2)ccn1 [Compound 208, N-(2-fluorophenyl)-4-(2-methoxypyridin-4-yl)pyrimidin-2-amine] | 10 to 100 | 10 to 100 |
| Oc1cc(-c2ccnc(Nc3cc(F)cc(F)c3)n2)ccn1 [Compound 147, 4-(2-((3,5-difluorophenyl)amino)pyrimidin-4-yl)pyridin-2-ol] | 1 to 10 | 1 to 10 |
| COc1cc(-c2ccnc(Nc3ccccc3)n2)ncn1 [Compound 162, 6′-methoxy-N-phenyl-[4,4′-bipyrimidin]-2-amine] | 10 to 100 | 10 to 100 |
| CS(=O)(=O)Nc1cccc(Nc2nccc(-c3ccc4[nH]cnc4c3)n2)c1 [Compound 255, N-(3-((4-(1H-benzo[d]imidazol-5-yl)pyrimidin-2-yl)amino)phenyl)methanesulfonamide] | 1 to 10 | 1 to 10 |
| COc1cc(-c2ccnc(Nc3ccccc3)n2)ccn1 [Compound 252, 4-(2-methoxypyridin-4-yl)-N-phenylpyrimidin-2-amine] | 10 to 100 | 10 to 100 |
| CC(C)c1nnc(Nc2nccc(-c3ccc4[nH]cnc4c3)n2)[nH]1 [Compound 54, 4-(1H-benzo[d]imidazol-5-yl)-N-(5-isopropyl-4H-1,2,4-triazol-3-yl)pyrimidin-2-amine] | 1 to 10 | 1 to 10 |
| O=S(=O)(Nc1ccccc1)c1cccc(Nc2nccc(-c3ccc4[nH]cnc4c3)n2)c1 [Compound 23, 3-((4-(1H-benzo[d]imidazol-5-yl)pyrimidin-2-yl)amino)-N-phenylbenzenesulfonamide] | 1 to 10 | 1 to 10 |
| COc1cc(-c2ccnc(Nc3ccccn3)n2)ccn1 [Compound 187, 4-(2-methoxypyridin-4-yl)-N-(pyridin-2-yl)pyrimidin-2-amine] | 10 to 100 | 10 to 100 |
| CN(c1cccc(C(F)(F)F)c1)c1nccc(-c2ccnc(O)c2)n1 [Compound 220, 4-(2-(methyl (3-(trifluoromethyl)phenyl)amino)pyrimidin-4-yl)pyridin-2-ol] | 10 to 100 | 10 to 100 |
| COc1cc(-c2ncnc(N(C)c3ccccc3)n2)ccn1 [Compound 216, 4-(2-methoxypyridin-4-yl)-N-methyl-N-phenyl-1,3,5-triazin-2-amine] | 10 to 100 | 10 to 100 |
| O=c1[nH]c2ccc(-c3ccnc(Nc4cccc(F)c4)n3)cc2[nH]1 [Compound 117, 5-(2-((3-fluorophenyl)amino)pyrimidin-4-yl)-1,3-dihydro-2H-benzo[d]imidazol-2-one] | 10 to 100 | 10 to 100 |

The next lines start with the values.

| IC50 [1] [µM] | IC50 [2] [µM] | SMILES |
| --- | --- | --- |
| 1 to 10 | 1 to 10 | COc1cccc(-c2ccnc(N(C)c3ccccc3)n2)c1 [Compound 247, 4-(3-methoxyphenyl)-N-methyl-N-phenylpyrimidin-2-amine] |
| < 0.2 | < 0.2 | FC(F)(F)c1cccc(Nc2nccc(-c3cnc4nc[nH]c4c3)n2)c1 [Compound 161, 4-(1H-imidazo[4,5-b]pyridin-6-yl)-N-(3-(trifluoromethyl)phenyl)pyrimidin-2-amine] |
| < 0.2 | < 0.2 | Cc1cc(Cl)cc(Nc2nccc(-c3ccc4nc[nH]c4c3)n2)c1 [Compound 274, 4-(1H-benzo[d]imidazol-6-yl)-N-(3-chloro-5-methylphenyl)pyrimidin-2-amine] |
| 0.2 to 1 | 0.2 to 1 | CC(C)(C)c1cccc(Nc2nccc(-c3ccnc(O)c3)n2)c1 [Compound 149, 4-(2-((3-(tert-butyl)phenyl)amino)pyrimidin-4-yl)pyridin-2-ol] |
| < 0.2 |  | CC(C)n1cnc2ccc(-c3ccnc(Nc4cccc(F)c4)n3)cc21 [Compound 277A, N-(3-fluorophenyl)-4-(1-isopropyl-1H-benzo[d]imidazol-6-yl)pyrimidin-2-amine] |
| < 0.2 | < 0.2 | Fc1cc(Nc2nccc(-c3ccc4[nH]cnc4c3)n2)cc(F)c1F [Compound 258, 4-(1H-benzo[d]imidazol-5-yl)-N-(3,4,5-trifluorophenyl)pyrimidin-2-amine] |
| 0.2 to 1 | 0.2 to 1 | FC(F)(F)c1cccc(Nc2nccc(-c3ccc4[nH]nnc4c3)n2)c1 [Compound 139, 4-(1H-Benzo[d][1,2,3]triazol-5-yl)-N-(3-(trifluoromethyl)phenyl)pyrimidin-2-amine] |
| 0.2 to 1 | 0.2 to 1 | Fc1cc2[nH]cnc2cc1-c1ccnc(Nc2cccc(C(F)(F)F)c2)n1 [Compound 126, 4-(6-fluoro-1H-benzo[d]imidazol-5-yl)-N-(3-(trifluoromethyl)phenyl)pyrimidin-2-amine] |
| < 0.2 | < 0.2 | Fc1cccc(Nc2nccc(-c3ccc4[nH]cnc4c3)n2)c1 [Compound 199, 4-(1H-benzo[d]imidazol-5-yl)-N-(3-fluorophenyl)pyrimidin-2-amine] |
| 0.2 to 1 | 0.2 to 1 | O=S(=O)(NC1CC1)c1cccc(Nc2nccc(-c3ccc4[nH]cnc4c3)n2)c1 [Compound 24, 3-((4-(1H-benzo[d]imidazol-5-yl)pyrimidin-2-yl)amino)-N-cyclopropylbenzenesulfonamide] |
| < 0.2 | < 0.2 | FC(F)c1cccc(Nc2nccc(-c3ccc4nc[nH]c4c3)n2)c1 [Compound 280, 4-(1H-benzo[d]imidazol-5-yl)-N-(3-(difluoromethyl)phenyl)pyrimidin-2-amine] |
| 0.2 to 1 | 0.2 to 1 | NC(=O)c1cccc(Nc2nccc(-c3ccc4[nH]cnc4c3)n2)c1 [Compound 67, 3-((4-(1H-benzo[d]imidazol-5-yl)pyrimidin-2-yl)amino)benzamide] |
| < 0.2 | < 0.2 | O=C(Nc1cccc(Nc2nccc(-c3ccc4[nH]cnc4c3)n2)c1)c1ccccc1 [Compound 1, N-(3-((4-(1H-benzo[d]imidazol-5-yl)pyrimidin-2-yl)amino)phenyl)benzamide] |
| < 0.2 | < 0.2 | c1cc(Nc2nccc(-c3ccc4[nH]cnc4c3)n2)cc(-c2cnco2)c1 [Compound 264, 4-(1H-benzo[d]imidazol-5-yl)-N-(3-(oxazol-5-yl)phenyl)pyrimidin-2-amine] |
